Marks after values point to notes of the source that are not given here.
What was measured:
Assay type in all cases: in vivo
Erysiphe graminis = assay: Test F: wheat seedlings sprayed, next day inoculated with Erysiphe graminis (wheat powdery mildew), visual disease rating; settings: sprayed day before inoculation
Excerpt: (§1) General protocol for preparing test suspensions for Tests A-F: the test compounds were first dissolved in acetone in an amount equal to 3% of the final volume and then suspended at the desired concentration (in ppm) in acetone and purified water (50/50 mix) containing 250 ppm of the surfactant Trem® 014 (polyhydric alcohol esters). The resulting test suspensions were then used in Tests A-F. Spraying a 200 ppm test suspension to the point of run-off on the test plants was the equivalent of a rate of 500 g/ha. An asterisk “*” next to the rating value indicates a 40 ppm test suspension.
The test suspension was sprayed to the point of run-off on wheat seedlings. The following day the seedlings were inoculated with a spore dust of Erysiphe graminis, (the causal agent of wheat powdery mildew) and incubated in a growth chamber at 20° C. for 8 days, after which time visual disease ratings were made.
(§2) Results for Tests A-F are given in Table A. In the Table, a rating of 100 indicates 100% disease control and a rating of 0 indicates no disease control (relative to the controls). A dash (-) indicates no test results. All results are for 200 ppm except where followed by “*”, which indicates 40 ppm.

[1] = system: Puccinia recondita f. sp. tritici; assay: Test E1: wheat seedlings inoculated with Puccinia recondita f. sp. tritici (wheat leaf rust), sprayed afterwards, visual disease rating; settings: sprayed after inoculation
Excerpt: as §1
Wheat seedlings were inoculated with a spore suspension of Puccinia recondita f. sp. tritici (the causal agent of wheat leaf rust) and incubated in a saturated atmosphere at 20° C. for 24 h, and then moved to a growth chamber at 20° C. for 2 days. At the end of this time the test suspension was sprayed to the point of run-off on the wheat seedlings, and then the seedlings were moved to a growth chamber at 20° C. for 6 days, after which time visual disease ratings were made.
as §2

Botrytis cinerea = assay: Test A: tomato seedlings sprayed, next day inoculated with Botrytis cinerea (tomato Botrytis), visual disease rating; settings: sprayed day before inoculation
Excerpt: as §1
The test suspension was sprayed to the point of run-off on tomato seedlings. The following day the seedlings were inoculated with a spore suspension of Botrytis cinerea (the causal agent of tomato Botrytis) and incubated in saturated atmosphere at 20° C. for 48 h, and then moved to a growth chamber at 24° C. for 3 days, after which time visual disease ratings were made.
as §2

Septoria nodorum = assay: Test C: wheat seedlings sprayed, next day inoculated with Septoria nodorum (wheat glume blotch), visual disease rating; settings: sprayed day before inoculation
Excerpt: as §1
The test suspension was sprayed to the point of run-off on wheat seedlings. The following day the seedlings were inoculated with a spore suspension of Septoria nodorum (the causal agent of wheat glume blotch) and incubated in a saturated atmosphere at 24° C. for 48 h, and then moved to a growth chamber at 20° C. for 6 days, after which time visual disease ratings were made.
as §2

[2] = system: Puccinia recondita f. sp. tritici; assay: Test E2: wheat seedlings sprayed, next day inoculated with Puccinia recondita f. sp. tritici (wheat leaf rust), visual disease rating; settings: sprayed day before inoculation
Excerpt: as §1
The test suspension was sprayed to the point of run-off on wheat seedlings. The following day the seedlings were inoculated with a spore suspension of Puccinia recondita f. sp. tritici (the causal agent of wheat leaf rust) and incubated in a saturated atmosphere at 20° C. for 24 h, and then moved to a growth chamber at 20° C. for 7 days, after which time visual disease ratings were made.
as §2

Septoria tritici = assay: Test D: wheat seedlings sprayed, next day inoculated with Septoria tritici (wheat leaf blotch), visual disease rating; settings: sprayed day before inoculation
Excerpt: as §1
The test suspension was sprayed to the point of run-off on wheat seedlings. The following day the seedlings were inoculated with a spore suspension of Septoria tritici (the causal agent of wheat leaf blotch) and incubated in saturated atmosphere at 24° C. for 48 h, and then moved to a growth chamber at 20° C. for 19 days, after which time visual disease ratings were made.
as §2

Alternaria solani = assay: Test B: tomato seedlings sprayed, next day inoculated with Alternaria solani (tomato early blight), visual disease rating; settings: sprayed day before inoculation
Excerpt: as §1
The test suspension was sprayed to the point of run-off on tomato seedlings. The following day the seedlings were inoculated with a spore suspension of Alternaria solani (the causal agent of tomato early blight) and incubated in a saturated atmosphere at 27° C. for 48 h, and then moved to a growth chamber at 20° C. for 5 days, after which time visual disease ratings were made.
as §2

[3] = Puccinia recondita, 40 ppm test suspension (*)
[4] = Puccinia recondita, 200 ppm test suspension

COc1cc(OC)cc(-c2c(C)nnc(Cl)c2-c2ccc(F)cc2F)c1 [Compound 32]
Test F rating (disease control) (Erysiphe graminis; 200 ppm test suspension): 89% | Test E1 rating (disease control) ([1]; 200 ppm test suspension): 0% | Test A rating (disease control) (Botrytis cinerea; 200 ppm test suspension): 99% | Test C rating (disease control) (Septoria nodorum; 200 ppm test suspension): 78% | Test E2 rating (disease control) ([2]; 200 ppm test suspension): 99% | Test D rating (disease control) (Septoria tritici; 200 ppm test suspension): 99% | Test B rating (disease control) (Alternaria solani; 200 ppm test suspension): 99%

COc1ccc(-c2c(C)nnc(C(C)(C)O)c2-c2cc(OC)cc(OC)c2)cc1 [Compound 19]
Test F rating (disease control) (Erysiphe graminis; 40 ppm test suspension (*)): 27* % | Test E1 rating (disease control) ([1]; 40 ppm test suspension (*)): 0* % | Test A rating (disease control) (Botrytis cinerea; 40 ppm test suspension (*)): 84* % | Test C rating (disease control) (Septoria nodorum; 40 ppm test suspension (*)): 0* % | Test E2 rating (disease control) ([2]; 40 ppm test suspension (*)): 96* % | Test D rating (disease control) (Septoria tritici; 40 ppm test suspension (*)): 97* % | Test B rating (disease control) (Alternaria solani; 40 ppm test suspension (*)): 99* %

COc1cc(OC)c(Cl)c(-c2c(C)nnc(Cl)c2-c2c(F)cccc2Cl)c1Cl [Compound 42]
Test F rating (disease control) (Erysiphe graminis; 200 ppm test suspension): 42% | Test E1 rating (disease control) ([1]; 200 ppm test suspension): 0% | Test A rating (disease control) (Botrytis cinerea; 200 ppm test suspension): 0% | Test C rating (disease control) (Septoria nodorum; 200 ppm test suspension): 0% | Test E2 rating (disease control) ([2]; 200 ppm test suspension): 89% | Test D rating (disease control) (Septoria tritici; 200 ppm test suspension): 60% | Test B rating (disease control) (Alternaria solani; 200 ppm test suspension): 0%

COc1cc(OC)cc(-c2c(CCl)nnc(Cl)c2-c2c(F)cccc2F)c1 [Compound 26, 3-chloro-6-(chloromethyl)-4-(2,6-difluorophenyl)-5-(3,5-dimethoxyphenyl)-pyridazine]
pest or weed control at 40 ppm (Erysiphe graminis; Blumeria graminis, 40 ppm test suspension (*)): 0% | pest or weed control at 40 ppm [1, 3]: 0% | pest or weed control at 40 ppm (Botrytis cinerea; Botrytis cinerea, 40 ppm test suspension (*)): 99% | pest or weed control at 40 ppm (Septoria nodorum; Parastagonospora nodorum, 40 ppm test suspension (*)): 0% | pest or weed control at 40 ppm [2, 3]: 97% | pest or weed control at 40 ppm (Septoria tritici; Zymoseptoria tritici, 40 ppm test suspension (*)): 99% | pest or weed control at 40 ppm (Alternaria solani; Alternaria solani, 40 ppm test suspension (*)): 0%

COc1cc(-c2c(C)nnc(Cl)c2-c2ccc(F)cc2F)cc(OC)c1Cl [Compound 45]
Test F rating (disease control) (Erysiphe graminis; 200 ppm test suspension): 100% | Test E1 rating (disease control) ([1]; 200 ppm test suspension): 100% | Test A rating (disease control) (Botrytis cinerea; 200 ppm test suspension): 100% | Test C rating (disease control) (Septoria nodorum; 200 ppm test suspension): 97% | Test E2 rating (disease control) ([2]; 200 ppm test suspension): 100% | Test D rating (disease control) (Septoria tritici; 200 ppm test suspension): 100% | Test B rating (disease control) (Alternaria solani; 200 ppm test suspension): 100%

COc1cc(OC)c(Cl)c(-c2c(C)nnc(F)c2-c2c(F)cccc2F)c1 [Compound 36]
Test F rating (disease control) (Erysiphe graminis; 200 ppm test suspension): 100% | Test E1 rating (disease control) ([1]; 200 ppm test suspension): 100% | Test A rating (disease control) (Botrytis cinerea; 200 ppm test suspension): 99% | Test C rating (disease control) (Septoria nodorum; 200 ppm test suspension): 60% | Test E2 rating (disease control) ([2]; 200 ppm test suspension): 100% | Test D rating (disease control) (Septoria tritici; 200 ppm test suspension): 100% | Test B rating (disease control) (Alternaria solani; 200 ppm test suspension): 100%

COc1cc(OC)cc(-c2c(C(C)C)nnc(C)c2-c2c(F)cc(F)cc2F)c1 [Compound 18]
Test F rating (disease control) (Erysiphe graminis; 200 ppm test suspension): 100% | Test E1 rating (disease control) ([1]; 200 ppm test suspension): 100% | Test A rating (disease control) (Botrytis cinerea; 200 ppm test suspension): 100% | Test C rating (disease control) (Septoria nodorum; 200 ppm test suspension): 82% | Test E2 rating (disease control) ([2]; 200 ppm test suspension): 100% | Test D rating (disease control) (Septoria tritici; 200 ppm test suspension): 99% | Test B rating (disease control) (Alternaria solani; 200 ppm test suspension): 99%

COc1cc(OC)cc(-c2c(C)nnc(C)c2-c2ccc(F)cc2F)c1 [Compound 40]
Test F rating (disease control) (Erysiphe graminis; 200 ppm test suspension): 95% | Test E1 rating (disease control) ([1]; 200 ppm test suspension): 0% | Test A rating (disease control) (Botrytis cinerea; 200 ppm test suspension): 100% | Test C rating (disease control) (Septoria nodorum; 200 ppm test suspension): 97% | Test E2 rating (disease control) ([2]; 200 ppm test suspension): 100% | Test D rating (disease control) (Septoria tritici; 200 ppm test suspension): 100% | Test B rating (disease control) (Alternaria solani; 200 ppm test suspension): 99%

COc1cc(OC)cc(-c2c(C)nnc(Cl)c2-c2c(F)cccc2Cl)c1 [Compound 38]
Test F rating (disease control) (Erysiphe graminis; 200 ppm test suspension): 100% | Test E1 rating (disease control) ([1]; 200 ppm test suspension): 85% | Test A rating (disease control) (Botrytis cinerea; 200 ppm test suspension): 100% | Test C rating (disease control) (Septoria nodorum; 200 ppm test suspension): 99% | Test E2 rating (disease control) ([2]; 200 ppm test suspension): 100% | Test D rating (disease control) (Septoria tritici; 200 ppm test suspension): 100% | Test B rating (disease control) (Alternaria solani; 200 ppm test suspension): 99%

COc1cc(OC)cc(-c2c(C(C)C)nnc(Cl)c2-c2c(F)cc(F)cc2F)c1 [Compound 16]
Test F rating (disease control) (Erysiphe graminis; 200 ppm test suspension): 100% | Test E1 rating (disease control) ([1]; 200 ppm test suspension): 100% | Test A rating (disease control) (Botrytis cinerea; 200 ppm test suspension): 99% | Test C rating (disease control) (Septoria nodorum; 200 ppm test suspension): 92% | Test E2 rating (disease control) ([2]; 200 ppm test suspension): 100% | Test D rating (disease control) (Septoria tritici; 200 ppm test suspension): 99% | Test B rating (disease control) (Alternaria solani; 200 ppm test suspension): 99%

COc1cc(OC)cc(-c2c(CC#N)nnc(Cl)c2-c2c(F)cccc2F)c1 [Compound 27, 6-chloro-5-(2,6-difluorophenyl)-4-(3,5-dimethoxyphenyl)-3-pyridazine-acetonitrile]
pest or weed control at 200 ppm (Erysiphe graminis; Blumeria graminis, 200 ppm test suspension): 98% | pest or weed control at 200 ppm [1, 4]: 0% | pest or weed control at 200 ppm (Botrytis cinerea; Botrytis cinerea, 200 ppm test suspension): 100% | pest or weed control at 200 ppm (Septoria nodorum; Parastagonospora nodorum, 200 ppm test suspension): 100% | pest or weed control at 200 ppm [2, 4]: 100% | pest or weed control at 200 ppm (Septoria tritici; Zymoseptoria tritici, 200 ppm test suspension): 100% | pest or weed control at 200 ppm (Alternaria solani; Alternaria solani, 200 ppm test suspension): 99%

COc1cc(OC)c(Cl)c(-c2c(C)nnc(Cl)c2-c2ccc(F)cc2F)c1 [Compound 44]
Test F rating (disease control) (Erysiphe graminis; 200 ppm test suspension): 100% | Test E1 rating (disease control) ([1]; 200 ppm test suspension): 96% | Test A rating (disease control) (Botrytis cinerea; 200 ppm test suspension): 66% | Test C rating (disease control) (Septoria nodorum; 200 ppm test suspension): 64% | Test E2 rating (disease control) ([2]; 200 ppm test suspension): 100% | Test D rating (disease control) (Septoria tritici; 200 ppm test suspension): 100% | Test B rating (disease control) (Alternaria solani; 200 ppm test suspension): 99%

COc1cc(OC)c(Cl)c(-c2c(C)nnc(C)c2-c2c(F)cccc2Cl)c1 [Compound 43]
Test F rating (disease control) (Erysiphe graminis; 200 ppm test suspension): 100% | Test E1 rating (disease control) ([1]; 200 ppm test suspension): 0% | Test A rating (disease control) (Botrytis cinerea; 200 ppm test suspension): 62% | Test C rating (disease control) (Septoria nodorum; 200 ppm test suspension): 99% | Test E2 rating (disease control) ([2]; 200 ppm test suspension): 100% | Test D rating (disease control) (Septoria tritici; 200 ppm test suspension): 100% | Test B rating (disease control) (Alternaria solani; 200 ppm test suspension): 82%

COc1cc(OC)cc(-c2c(C)nnc(C)c2-c2c(F)cccc2Cl)c1 [Compound 39]
Test F rating (disease control) (Erysiphe graminis; 200 ppm test suspension): 98% | Test E1 rating (disease control) ([1]; 200 ppm test suspension): 99% | Test A rating (disease control) (Botrytis cinerea; 200 ppm test suspension): 100% | Test C rating (disease control) (Septoria nodorum; 200 ppm test suspension): 99% | Test E2 rating (disease control) ([2]; 200 ppm test suspension): 100% | Test D rating (disease control) (Septoria tritici; 200 ppm test suspension): 100% | Test B rating (disease control) (Alternaria solani; 200 ppm test suspension): 99%

COc1ccc(-c2c(C)nnc(C(C)=O)c2-c2cc(OC)cc(OC)c2)cc1 [Compound 14]
Test F rating (disease control) (Erysiphe graminis; 200 ppm test suspension): 84% | Test E1 rating (disease control) ([1]; 200 ppm test suspension): 16% | Test A rating (disease control) (Botrytis cinerea; 200 ppm test suspension): 99% | Test C rating (disease control) (Septoria nodorum; 200 ppm test suspension): 0% | Test E2 rating (disease control) ([2]; 200 ppm test suspension): 95% | Test D rating (disease control) (Septoria tritici; 200 ppm test suspension): 99% | Test B rating (disease control) (Alternaria solani; 200 ppm test suspension): 0%
